Patent publication US10385011B2, “Benzoic acid amide compound” (AMOREPACIFIC CORPORATION, priority 2015, dated 2019)
pIC50: −log10 of the molar value.

The compounds below were run on Mouse-derived B16F10 melanoma cells (assay: Effect of reducing melanin production in melanocytes (Dooley's method)). Details: B16-F10, 120 h, medium with compound replaced for three consecutive days, melanin extracted after 5 days, absorbance at 405 nm, read-out: IC50, concentration required to inhibit melanin production in melanocytes to half.
Format: cell-based
Experimental: The effect of inhibiting melanin production of the benzoic acid amide derivative compounds prepared in Examples in melanocytes was measured according to the Dooley's method. Mouse-derived B16F10 melanoma cells acquired from the Korean Cell Line Bank were used as cell lines. DMEM (Cat No. 11995), FBS (Cat No. 16000-044), and antibiotic-antifungal agents (Cat No. 15240-062) necessary for cell culturing were purchased from Invitrogen (GIBCO). The cell lines were cultured under the condition of 37° C. and 5% CO2. The cultured B16F10 cells were detached using 0.05% trypsin-EDTA and inoculated onto a 48-well plate with the same cell number (1×10^4 cells/well). From the next day, the culture medium was replaced with one containing 10 ppm of each compound of Examples for three consecutive days. […] After 5 days, melanin was melted and extracted from the cells by treating with 1 N NaOH at 60° C. for 2 hours, which was quantitated by measuring absorbance at 405 nm. The concentrations (IC50) of Examples required to inhibit melanin production in melanocytes to half were calculated and are given in the following Table 1.
Work on `COc1cc(OC)c(-c2cccc([N+](=O)[O-])c2)cc1C(=O)NCc1ccc(O)cc1O` [Example 10, N-(2,4-dihydroxy-benzyl)-2,4-dimethoxy-5-(3-nitro-phenyl) Benzoic Acid Amide] yielded a pIC50 of 5.89. In the case of `COc1ccc(-c2cc(C(=O)NCc3ccc(O)cc3O)c(OC)cc2OC)cc1` [Example 5, N-(2,4-dihydroxy-benzyl)-2,4-dimethoxy-5-(4-methoxy-phenyl) Benzoic Acid Amide], the pIC50 was 6.15. Work on `COc1cc(OC)c(-c2ccc(F)c(F)c2)cc1C(=O)NCc1ccc(O)cc1O` [Example 9, N-(2,4-dihydroxy-benzyl)-2,4-dimethoxy-5-(3,4-difluoro-phenyl) Benzoic Acid Amide] yielded a pIC50 of 6.22. For `CCCCc1ccc(O)cc1O` [Rucinol, reference compound], the pIC50 was 6.10. `COc1cc(OC)c(-c2cc(C)cc(C)c2)cc1C(=O)NCc1ccc(O)cc1O` [Example 8, N-(2,4-dihydroxy-benzyl)-2,4-dimethoxy-5-(3,5-dimethyl-phenyl) Benzoic Acid Amide] was tested, and the pIC50 was 5.82. `COc1cc(OC)c(C2CCCCC2)cc1C(=O)NCc1ccc(O)cc1O` [Example 12, 5-cyclohexyl-N-(2,4-dihydroxy-benzyl)-2,4-dimethoxy-benzoic Acid Amide] showed a pIC50 of 5.68. With `COc1cc(OC)c(C(C)(C)C)cc1C(=O)NCc1ccc(O)cc1O` [Example 1, 5-tert-butyl-N-(2,4-dihydroxy-benzyl)-2,4-dimethoxy-benzoic Acid Amide] the pIC50 was 5.64. In the case of `COc1cc(OC)c(-c2ccc(F)cc2)cc1C(=O)NCc1ccc(O)cc1O` [Example 6, N-(2,4-dihydroxy-benzyl)-2,4-dimethoxy-5-(4-fluoro-phenyl)-benzoic Acid Amide], the pIC50 was 6.15. With `COc1cc(OC)c(C2=CCCCC2)cc1C(=O)NCc1ccc(O)cc1O` [Example 11, 5-cyclohexene-1-yl-N-(2,4-dihydroxy-benzyl)-2,4-dimethoxy-benzoic Acid Amide] the pIC50 was 6.05. In the case of `COc1cc(OC)c(-c2ccc3c(c2)OCO3)cc1C(=O)NCc1ccc(O)cc1O` [Example 7, 5-benzo[1,3]dioxol-5-yl-N-(2,4-dihydroxy-benzyl)-2,4-dimethoxy-benzoic Acid Amide], the pIC50 was 6.15.
